≈ marks a conversion by molar mass, not a printed value. Like-named read-outs stand apart in the source and are kept apart here.
Tests used:
[1] = OSI test of milkweed seed oil mixed with additive; settings: 1.0% additive, 130° C.
Description: (§1) A presently preferred method of determining oxidative stability of lipids and oils employs the Oxidative Stability Index (OSI), which determines the oxidative stability of an oil by passing air through a sample under stringent temperature control. (Firestone, Oxidative Stability Index (OSI): Official Methods of Recommended Practices of the American Oil Chemists' Society (AOCS), 4th Ed. American Oil Chemists Society, Champaign, Ill., AOCS Official Method Cd 12b-92, 1993.) In this method, a stream of air is passed through the oil sample, which aids in the rapid degradation of the triglyceride into volatile organic acids. The air stream flushes the volatile acids from the oil into a conductivity cell containing water where the acids are solubilized. These acids, once dissolved in the water solution, disassociate into ions, thus changing the conductivity of the water. Therefore, a continuous measure of the conductivity of the cell by computer will indicate when a rapid rise in the conductivity occurs that corresponds to the induction point, oxidative failure of the sample. […]
(§2) Unless otherwise stated, Oxidative Stability Index (OSI) values were determined on 5.00 ±0.05 g lipid or oil samples in triplicate according to AOCS Official Method Cd 12b-92 (AOCS, 1993) at 90° C., 110° C. and/or 130° C. on an oxidative stability instrument manufactured by Omnion (Rockland, Mass.). […]

[2] = OSI test of soybean oil mixed with additive; settings: 1.0% additive, 130° C.
Description: as §1, §2

[3] = Oxidative Stability by Rotating Pressure Vessel (RBOT) of refined meadowfoam seed oil plus thiourea compounds
Description: Another presently preferred method of determining oxidative stability of lipids and oils employs the Oxidative Stability by Rotating Pressure Vessel (RBOT) test. In this test, oxidative stability, determined according to the ASTM D2272-98 test method (ASTM, 2001, “Standard Test Method for Oxidation Stability of Steam Turbine Oils by Rotating Pressure Vessel,” in Book of Standards, Vol. 05.01., American Society for Testing and Materials, West Conshohocken, Pa.), measures the time for oxygen pressure to decrease in a closed stainless steel vessel containing a lipid or oil when heated with a copper coil catalyst. Oxygen taken up by the lipid or oil during the reaction is an indication of oil degradation.
In these experiments, Oxidative Stability by Rotating Pressure Vessel (RBOT) tests were performed with different 3-methoxybenzyl thiourea compounds synthesized in Example 3 that were mixed in different quantities with different mono- and polyunsaturated vegetable oils. Hexane was used to clean and store the copper coils, but all other aspects of the Oxidative Stability by Rotating Pressure Vessel (RBOT) test were the same as in the standard ASTM D2272–98 test method (ASTM, 2001, “Standard Test Method for Oxidation Stability of Steam Turbine Oils by Rotating Pressure Vessel,” in Book of Standards, Vol. 05.01., American Society for Testing and Materials, West Conshohocken, Pa.).

[4] = Behaviour on addition of water to DMSO solution (sample preparation); assay type: physicochemical; settings: dissolved in 50 μl DMSO, water added to make 1 mg/ml
Method: Test compounds (1–2 mg) were originally made up at a concentration of 1 mg/ml in artificial seawater, except for water insoluble compounds, which were dissolved in 50 μl of dimethyl sulfoxide (DMSO) prior to adding enough water to make a 1 mg/ml solution. Serial dilutions were performed in 100 μl of seawater in triplicate in the wells of a 96-well microplate to give appropriate concentrations. Control wells for both water and DMSO were included with each experiment. A 100 μl solution of naupli (10–30) was added to each well, and the covered plate was incubated for 24 h at 27° C. The number of non-motile, and the total number of, naupli were counted in each well using a binocular microscope (10×). LC50 values were then calculated by Probit analysis (Finney, D. J., 1971, “Probit Analysis,” 3rd Ed.; University Press: Cambridge [Eng.]).

in vivo = settings: Artemia salina (brine shrimp), in vivo, other: exposure in seawater in microplate wells
Method: (§3) Brine shrimp eggs (Artemia salina) were obtained from Brine Shrimp Direct, Ogden, Utah and stored at 10° C. until used. Eggs (400 mg) were added to 1 l of deionized water containing 40 g of sea salts (Sigma Chemical Co., St. Louis, Mo.).
(§4) Serial dilutions were performed in 100 μl of seawater in triplicate in the wells of a 96-well microplate to give appropriate concentrations. Control wells for both water and DMSO were included with each experiment. […] The number of non-motile, and the total number of, naupli were counted in each well using a binocular microscope (10×).

[5] = test system: Brine Shrimp (Artemia Salina); experiment: in vivo; settings: as Table 7 shows
Method: as §3, §4

[6] = Solubility in refined meadowfoam seed oil (HPLC); assay type: physicochemical; settings: oil or lipid, thermodynamic from solid, cooled to room temperature overnight
Method: Typical retention times were 7–9 min for the thioureas. Samples were weighed accurately (about 0.1 g) into 1.00 g of refined meadowfoam seed oil and heated to temperature (either 30° C. or 50° C.) for 4 h with occasional shaking. The samples were cooled to room temperature overnight, centrifuged and 0.3 g of the supernatant oil was removed and diluted with 1 ml CHCl3 for testing.

- Oxidative Stability (RBOT) ([3]; Refined Meadowfoam Seed Oil plus 0.05% compound): 33 min
- Oxidative Stability (RBOT) ([3]; Refined Meadowfoam Seed Oil plus 0.1% compound): 40 min
- Oxidative Stability (RBOT) ([3]; Refined Meadowfoam Seed Oil plus 0.2% compound): 41 min
- Oxidative Stability (RBOT) ([3]; Refined Meadowfoam Seed Oil plus 1.0% compound): 41 min
- Oxidative stability in the RBOT test, in words ([3]; addition of 0.1% compound): doubled
- behaviour upon the addition of water [4]: precipitated out of solution
- solubility at 4 h ([6]; heated to 30° C. for 4 h, read-out: Solubility at 30° C.): 2480 µg/mL (≈ 7.84 mM)
- solubility at 4 h ([6]; heated to 50° C. for 4 h, read-out: Solubility at 50° C.): 3520 µg/mL (≈ 11.1 mM)
Compound: COc1cccc(CNC(=S)NCc2cccc(OC)c2)c1 [1,3-di(3-methoxybenzyl) thiourea]
- OSI Time [1]: 2.78 h
- improvement of OSI time compared to milkweed oil alone [1]: 654%
- OSI Time [2]: 6.4 h
- improvement of OSI time compared to soybean oil alone [2]: 831%
- LC50 at 24 h (in vivo): > 1000 µg/mL
- toxicity against brine shrimp, in words [5]: very low

— patent publication US7169815B2, “3-methoxybenzyl thiourea derivatives and improved lipid compositions containing same” (The United States of America as represented by the …, priority 2000, dated 2007)
